Results published in the supplement of paper PMC11061612.

Columns and labels:
Experiment in all cases: Bliss excess, mean over the matrix (fraction); higher = more synergy
[1] = system: MFE-280 (Endometrial Carcinoma)
Summary of the method: (§1)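 Cell lines in DMEM/F12 or RPMI with 10% FBS were plated in 1536-well plates, held 24 hours at 37°C, 5% CO2, then given two-drug dose matrices for 72 hours (DMSO typically 0.2%). Viability was read by CellTiter-Glo 2.0 luminescence and scaled as inhibition from 0 (vehicle wells) to 1 (blank wells). Combination Emax is the second-highest inhibition in the matrix; Bliss excess is observed combination effect minus expected EA + EB − EA·EB, EA and EB being single-agent effects.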

[2] = system: GB-1 (Glioblastoma)
Summary of the method: as §1

[3] = system: HSC-39 (Gastric Carcinoma)
Summary of the method: as §1

[4] = system: MKN45 (Gastric Carcinoma)
Summary of the method: as §1

[5] = system: IST-MES1 (Mesothelioma)
Summary of the method: as §1

[6] = system: WM793B (Melanoma)
Summary of the method: as §1

[7] = system: SK-PN-DW (Other Solid Carcinomas)
Summary of the method: as §1

[8] = system: WM278 (Melanoma)
Summary of the method: as §1

[9] = system: REH (B-Lymphoblastic Leukemia)
Summary of the method: as §1

[10] = system: SU-DHL-10 (B-Cell Non-Hodgkin's Lymphoma)
Summary of the method: as §1

[11] = system: LN-229 (Glioblastoma)
Summary of the method: as §1

[12] = system: HCT-15 (Colorectal Carcinoma)
Summary of the method: as §1

[13] = system: PSN1 (Pancreatic Carcinoma)
Summary of the method: as §1

[14] = system: RKN (Other Solid Carcinomas)
Summary of the method: as §1

[15] = system: SF539 (Glioblastoma)
Summary of the method: as §1

[16] = system: GP5d (Colorectal Carcinoma)
Summary of the method: as §1

[17] = system: SF268 (Low Grade Glioma)
Summary of the method: as §1

[18] = system: FADU (Head and Neck Carcinoma)
Summary of the method: as §1

[19] = system: NCI-H23 (Lung Adenocarcinoma)
Summary of the method: as §1

[20] = system: NCI-H446 (Small Cell Lung Carcinoma)
Summary of the method: as §1

Row | SMILES | Bliss excess [1] | Bliss excess [2] | Bliss excess [3] | Bliss excess [4] | Bliss excess [5] | Bliss excess [6] | Bliss excess [7] | Bliss excess [8] | Bliss excess [9] | Bliss excess [10] | Bliss excess [11] | Bliss excess [12] | Bliss excess [13] | Bliss excess [14] | Bliss excess [15] | Bliss excess [16] | Bliss excess [17] | Bliss excess [18] | Bliss excess [19] | Bliss excess [20]
1 | CN(CCO)CC[C@H](CSc1ccccc1)Nc1ccc(S(=O)(=O)NC(=O)c2ccc(N3CCC([C@@H](O)c4ccccc4-c4ccc(Cl)cc4)CC3)cc2)cc1S(=O)(=O)C(F)(F)F [AZD4320] + C1CN(CCC1(C(=O)N[C@@H](CCO)C2=CC=C(C=C2)Cl)N)C3=NC=NC4=C3C=CN4 [Capivasertib] (first compound max 1 µM, 7x7, partner max 3 µM) | 0.0092 | -0.0274 | -0.0072 | -0.0977 | -0.0371 | -0.0384 | -0.0588 | -0.0378 | 0.0197 | 0.0129 | -0.0443 | -0.0435 | -0.0264 | -0.0321 | -0.0352 | -0.0396 | -0.0502 | -0.0268 | -0.0273 | 0.0316
2 | NC1(C(=O)N[C@@H](CCO)c2ccc(Cl)cc2)CCN(c2ncnc3[nH]ccc23)CC1 [Capivasertib] + CC(C)n1c(=O)n(C)c2cnc3cc(F)c(-c4ccc(OCCCN5CCCCC5)nc4)cc3c21 [AZD1390] (first compound max 10 µM, 7x7, partner max 0.3 µM) | -0.0763 | -0.0399 | 0.0112 | -0.0646 | -0.0553 | -0.0826 | -0.0892 | -0.0671 | -0.135 | 0.0402 | -0.0755 | -0.036 | -0.0422 | -0.0477 | -0.0528 | -0.0843 | -0.0398 | -0.0562 | -0.0484 | -0.0866
3 | NC1(C(=O)N[C@@H](CCO)c2ccc(Cl)cc2)CCN(c2ncnc3[nH]ccc23)CC1 [Capivasertib] + CCN(CCO)CCCOc1ccc2c(Nc3cc(CC(=O)Nc4cccc(F)c4)[nH]n3)ncnc2c1 [AZD2811] (first compound max 10 µM, 7x7, partner max 1 µM) | -0.0112 | -0.0143 | -0.0799 | 0.0383 | -0.0427 | 0.002 | -0.017 | -0.065 | -0.0591 | -0.0466 | -0.0413 | -0.0021 | -0.0309 | -0.0711 | -0.0573 | -0.0899 | -0.0667 | -0.0125 | 0.0232 | -0.0168
4 | CC1(C)CCC(CN2CCN(c3ccc(C(=O)NS(=O)(=O)c4ccc(NCC5CCOCC5)c([N+](=O)[O-])c4)c(Oc4cnc5[nH]ccc5c4)c3)CC2)=C(c2ccc(Cl)cc2)C1 [Venetoclax] + CN(C)CCCOc1ccc(-c2ccc3ncc4c(c3c2)n(C2CCOCC2)c(=O)n4C)cn1 [AZD0156] (first compound max 1 µM, 7x7, partner max 1 µM) | 0.0338 | -0.0206 | 0.015 | -0.095 | -0.0382 | -0.0499 | -0.0437 | -0.0496 | 0.0037 | -0.0043 | -0.007 | -0.0192 | -0.0421 | -0.0862 | 0.0126 | -0.0274 | 0.0022 | 0.0088 | -0.0114 | 0.0143
5 | C[C@@H](c1ccc2nccn2c1)n1nnc2ncc(-c3cnn(C)c3)nc21 [Savolitinib] + Cc1c2c(nn1C)CSCc1cc(n(C)n1)CSc1cc(c3ccccc3c1)OCCCc1c(C(=O)O)n(C)c3c-2c(Cl)ccc13 [AZD5991] (first compound max 1 µM, 7x7, partner max 1 µM) | -0.052 | -0.0495 | -0.0133 | -0.0133 | -0.0435 | -0.0658 | -0.0656 | -0.0386 | -0.0369 | -0.0034 | -0.0372 | 0.0013 | -0.0182 | -0.0706 | -0.0337 | -0.0912 | -0.0595 | -0.0687 | -0.0163 | 0.0471
6 | COc1cccc(OCCCN)c1-c1cc(Nc2cnc(C#N)cn2)n[nH]1 [Prexasertib] + Cc1cc2ncnn2cc1Nc1ncc2c(n1)n(C1CCOCC1)c(=O)n2C [AZD7648] (first compound max 1 µM, 7x7, partner max 10 µM) | 0.0032 | 0.0387 | 0.008 | -0.0229 | -0.0032 | -0.0169 | -0.0503 | -0.009 | -0.0041 | -0.045 | -0.0596 | -0.0449 | 0.0106 | -0.0293 | 0.014 | 0.033 | 0.0078 | -0.0383 | -0.026 | -0.008
7 | C=CCn1c(=O)c2cnc(Nc3ccc(N4CCN(C)CC4)cc3)nc2n1-c1cccc(C(C)(C)O)n1 [AZD1775] + O=C(c1cc(Cc2n[nH]c(=O)c3ccccc23)ccc1F)N1CCN(C(=O)C2CC2)CC1 [Olaparib] (first compound max 1 µM, partner max 10 µM) | -0.0652 | -0.0537 | 0.0277 | -0.005 | -0.0409 | -0.0236 | -0.0694 | -0.0312 | -0.0474 | -0.0229 | -0.0851 | -0.0674 | -0.0585 | -0.0138 | 0.0258 | 0.0252 | -0.0312 | -0.0303 | -0.035 | 0.0223
8 | COc1nnc2ccc(N3CCC(c4ccc(OCCN5CCN(C)C(=O)[C@H]5C)cc4)CC3)nn12 [AZD5153] + C[C@@H]1COCCN1C2=NC(=NC(=C2)C3(CC3)[S@](=N)(=O)C)C4=C5C=CNC5=NC=C4 [AZD6738] (first compound max 1 µM, 7x7, partner max 10 µM) | -0.0103 | 0.0446 | -0.0055 | -0.0649 | -0.0183 | -0.0158 | -0.0638 | 0.0507 | -0.0059 | -0.038 | 0.0224 | 0.0267 | 0.0171 | -0.0757 | 0.0418 | -0.0421 | 0.0311 | 0.0155 | -0.0105 | 0.0153
9 | CC1(C)CCC(CN2CCN(c3ccc(C(=O)NS(=O)(=O)c4ccc(NCC5CCOCC5)c([N+](=O)[O-])c4)c(Oc4cnc5[nH]ccc5c4)c3)CC2)=C(c2ccc(Cl)cc2)C1 [Venetoclax] + Cc1cc2ncnn2cc1Nc1ncc2c(n1)n(C1CCOCC1)c(=O)n2C [AZD7648] (first compound max 1 µM, 7x7, partner max 10 µM) | -0.0773 | -0.0591 | -0.0289 | -0.0576 | -0.0284 | 0.0156 | -0.054 | -0.0476 | 0.0108 | -0.0139 | -0.0174 | -0.0043 | -0.0534 | -0.062 | 0.0069 | -0.0119 | -0.0146 | -0.0241 | -0.0172 | -0.0181
10 | CN(C)CCCOc1ccc(-c2ccc3ncc4c(c3c2)n(C2CCOCC2)c(=O)n4C)cn1 [AZD0156] + O=C(c1cc(Cc2n[nH]c(=O)c3ccccc23)ccc1F)N1CCN(C(=O)C2CC2)CC1 [Olaparib] (first compound max 3 µM, partner max 3 µM) | 0.0591 | 0.014 | 0.128 | -0.0028 | -0.0141 | 0.0206 | 0.0158 | 0.0011 | 0.143 | 0.11 | -0.0258 | 0.007 | 0.0124 | 0.0042 | 0.133 | 0.0682 | -0.0347 | 0.0039 | 0.0049 | 0.0788
11 | CN(CCO)CC[C@H](CSc1ccccc1)Nc1ccc(S(=O)(=O)NC(=O)c2ccc(N3CCC([C@@H](O)c4ccccc4-c4ccc(Cl)cc4)CC3)cc2)cc1S(=O)(=O)C(F)(F)F [AZD4320] + Cc1cc2ncnn2cc1Nc1ncc2c(n1)n(C1CCOCC1)c(=O)n2C [AZD7648] (first compound max 1 µM, 7x7, partner max 10 µM) | -0.0471 | -0.0225 | 0.0221 | -0.0744 | -0.042 | -0.0234 | -0.0411 | -0.0277 | 0.0041 | 0.0212 | -0.0393 | -0.0202 | -0.0361 | -0.0467 | 0.0095 | -0.052 | -0.0371 | -0.016 | -0.0298 | 0.0292
12 | CC1(C)CCC(CN2CCN(c3ccc(C(=O)NS(=O)(=O)c4ccc(NCC5CCOCC5)c([N+](=O)[O-])c4)c(Oc4cnc5[nH]ccc5c4)c3)CC2)=C(c2ccc(Cl)cc2)C1 [Venetoclax] + Cn1cnc2c(F)c(Nc3ccc(Br)cc3Cl)c(C(=O)NOCCO)cc21 [Selumetinib] (first compound max 1 µM, 7x7, partner max 3 µM) | -0.0138 | -0.0366 | -0.048 | -0.0574 | -0.0381 | -0.0191 | -0.0308 | -0.0319 | -0.0467 | -0.0123 | -0.0372 | -0.0231 | -0.0262 | -0.0034 | 0.0003 | 0.01 | -0.0355 | 0.0212 | -0.0208 | -0.0372
